From patent US20230049952A1, “METHODS AND COMPOUNDS FOR RESTORING MUTANT P53 FUNCTION” (PMV Pharmaceuticals, Inc., priority 2020, published 2023)
Like-named read-outs stand apart in the source and are kept apart here.

What was measured:
[1] = target: T1, OCT2 (Homo sapiens, UniProt O15244); conditions: 2 min/5 μM
T1 sequence (O15244 1-555): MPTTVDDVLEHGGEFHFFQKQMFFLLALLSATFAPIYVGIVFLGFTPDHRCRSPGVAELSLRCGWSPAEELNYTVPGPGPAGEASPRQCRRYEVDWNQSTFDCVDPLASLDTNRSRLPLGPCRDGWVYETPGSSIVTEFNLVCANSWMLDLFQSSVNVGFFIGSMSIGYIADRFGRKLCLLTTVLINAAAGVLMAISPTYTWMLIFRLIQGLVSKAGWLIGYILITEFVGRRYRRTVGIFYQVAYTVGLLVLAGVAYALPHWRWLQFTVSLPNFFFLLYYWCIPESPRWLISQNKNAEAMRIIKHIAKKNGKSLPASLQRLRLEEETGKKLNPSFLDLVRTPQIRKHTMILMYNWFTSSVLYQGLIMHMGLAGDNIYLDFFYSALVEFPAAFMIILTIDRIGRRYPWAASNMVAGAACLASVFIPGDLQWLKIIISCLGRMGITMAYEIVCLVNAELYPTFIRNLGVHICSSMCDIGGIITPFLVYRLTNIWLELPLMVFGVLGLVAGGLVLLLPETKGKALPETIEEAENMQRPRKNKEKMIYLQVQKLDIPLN
Procedure: All experiments were conducted in duplicate (n=2). The cells were incubated for the indicated time in a humidified incubator (37° C. 5% CO2). […] The uptake incubation was stopped by two washes with ice-cold HBSSg.

[2] = test system: CYP enzymes in human liver microsomes; conditions: HLM, probe S-Mephenytoin 25 μM
Procedure: Pooled HLM were stored at −80° C. until use. […] The reaction was initiated by adding NADPH, followed by incubation at 37° C.
Corrected CLint=Raw CLint−Negative Control CLint; Δ CLint=CLHint(TA+NADPH−Inhibitor)−CLint (TA+NADPH+Inhibitor).

[3] = target: T2, CYP2C8 (Homo sapiens, UniProt P10632); assay: in vitro; conditions: both, microsomes, pH 7.4
T2 sequence (P10632 1-490): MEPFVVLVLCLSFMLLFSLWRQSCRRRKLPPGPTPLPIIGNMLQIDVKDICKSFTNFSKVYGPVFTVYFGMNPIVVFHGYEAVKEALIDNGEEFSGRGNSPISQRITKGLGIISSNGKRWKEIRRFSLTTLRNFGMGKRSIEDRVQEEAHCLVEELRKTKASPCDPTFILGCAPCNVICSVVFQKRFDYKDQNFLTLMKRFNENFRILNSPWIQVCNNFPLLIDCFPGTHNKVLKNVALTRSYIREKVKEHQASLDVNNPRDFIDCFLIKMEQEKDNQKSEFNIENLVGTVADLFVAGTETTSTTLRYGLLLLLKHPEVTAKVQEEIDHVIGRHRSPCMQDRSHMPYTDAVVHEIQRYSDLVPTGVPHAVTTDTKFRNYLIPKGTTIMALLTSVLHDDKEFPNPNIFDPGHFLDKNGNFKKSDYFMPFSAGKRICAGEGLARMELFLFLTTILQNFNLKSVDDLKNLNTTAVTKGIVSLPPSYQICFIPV

[4] = target: CYP2C9 (Homo sapiens, UniProt P11712); assay: CYP inhibition in human liver microsomes; format: in vitro ADME; design: from tissue; host or cells: pooled human liver microsomes, 200 donors; conditions: both sexes, pooled human liver microsomes, pH 7.4, HLM, read-out: % of Control Enzyme Activity
Procedure: The HLMs were stored at −80° C. until use.
Negative (vehicle) controls were conducted without a test article.

[5] = test system: p53 in HCT116; assay: p53 (DO-1) Western blot; format: cell-based, human; conditions: HCT116 + RG7388 50 nM, 24 hr
Procedure: (§1) Protein samples were quantified using BCA.
(§2) Western blot: For each cell line, 10 μg of total protein were run on a 4-12% Bis-Tris precast gel. The gel was transferred to a nitrocellulose membrane. The membrane was blocked for 1 hour using the Odyssey TBS blocking solution. Membranes were incubated overnight in p53 (p53, DO-1) and actin (beta-actin) primary antibodies. The next day, blots were washed and incubated in either goat anti-mouse for p53 or goat-anti-rabbit for actin secondaries antibodies. Blots were then washed and imaged using an Odyssey CLx imaging system. Bands were quantified using Image Studio software and normalized to the actin control. The p53 or actin levels were then normalized to the NUGC3 band and graphed using Prism.
(§3) Since p53 protein pools are strongly autoregulated by degradation by the transcriptional target MDM2, pools of p53 accumulate to high levels in cells with mutant p53.

[6] = test system: p53 in SJSA1; assay: p53 (DO-1) Western blot; format: cell-based, human; conditions: SJSA1 + RG7388 50 nM, 24 hr
Procedure: as §1, §2, §3

[7] = target: T3, OATP1B1 (Homo sapiens, UniProt Q9Y6L6); assay: uptake transporter inhibition assessment, transfected HEK293; conditions: inhibitor 10 μM
T3 sequence (Q9Y6L6 1-691): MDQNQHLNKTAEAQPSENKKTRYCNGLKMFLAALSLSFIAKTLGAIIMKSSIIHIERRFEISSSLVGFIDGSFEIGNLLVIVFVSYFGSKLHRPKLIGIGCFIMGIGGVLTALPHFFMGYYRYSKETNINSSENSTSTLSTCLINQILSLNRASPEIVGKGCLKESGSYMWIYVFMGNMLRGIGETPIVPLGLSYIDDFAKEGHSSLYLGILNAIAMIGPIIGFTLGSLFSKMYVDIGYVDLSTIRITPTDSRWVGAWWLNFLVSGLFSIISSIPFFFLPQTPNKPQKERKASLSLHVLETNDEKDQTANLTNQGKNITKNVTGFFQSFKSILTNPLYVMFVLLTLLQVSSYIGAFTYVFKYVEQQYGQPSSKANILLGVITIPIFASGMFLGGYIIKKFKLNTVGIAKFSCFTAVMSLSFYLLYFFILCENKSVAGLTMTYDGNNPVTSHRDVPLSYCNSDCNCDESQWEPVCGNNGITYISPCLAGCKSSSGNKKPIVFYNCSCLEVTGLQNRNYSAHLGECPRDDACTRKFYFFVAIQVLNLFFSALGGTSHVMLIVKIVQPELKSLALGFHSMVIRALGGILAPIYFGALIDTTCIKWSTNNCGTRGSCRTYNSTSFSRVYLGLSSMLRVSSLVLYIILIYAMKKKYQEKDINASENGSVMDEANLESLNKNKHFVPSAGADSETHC

[8] = target: T4, OATP1B3 (Homo sapiens, UniProt Q9NPD5); assay: as above; conditions: inhibitor 10 μM
T4 sequence (Q9NPD5 1-702): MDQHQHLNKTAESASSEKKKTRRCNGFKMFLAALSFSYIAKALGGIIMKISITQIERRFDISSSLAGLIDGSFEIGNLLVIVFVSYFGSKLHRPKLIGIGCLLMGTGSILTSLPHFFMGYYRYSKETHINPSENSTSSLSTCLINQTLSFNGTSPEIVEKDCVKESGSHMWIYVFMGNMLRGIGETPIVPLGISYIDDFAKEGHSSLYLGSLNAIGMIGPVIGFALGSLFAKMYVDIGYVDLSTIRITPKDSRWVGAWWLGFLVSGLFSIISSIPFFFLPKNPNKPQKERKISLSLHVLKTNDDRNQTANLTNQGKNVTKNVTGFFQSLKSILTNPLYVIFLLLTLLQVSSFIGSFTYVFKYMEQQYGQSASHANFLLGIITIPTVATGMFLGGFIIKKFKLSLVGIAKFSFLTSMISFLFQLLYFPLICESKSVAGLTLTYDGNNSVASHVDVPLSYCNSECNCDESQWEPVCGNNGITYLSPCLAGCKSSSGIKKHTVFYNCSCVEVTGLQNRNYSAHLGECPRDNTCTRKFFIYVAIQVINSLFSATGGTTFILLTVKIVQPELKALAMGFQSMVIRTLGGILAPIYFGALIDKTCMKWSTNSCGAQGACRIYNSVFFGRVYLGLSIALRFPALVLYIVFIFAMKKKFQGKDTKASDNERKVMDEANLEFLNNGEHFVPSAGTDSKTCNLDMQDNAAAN

[9] = target: CYP2D6 (Homo sapiens, UniProt P10635); assay: CYP inhibition in human liver microsomes; format: in vitro ADME; design: from tissue; host or cells: pooled human liver microsomes, 200 donors; conditions: both sexes, pooled human liver microsomes, pH 7.4, HLM, read-out: % of Control Enzyme Activity
[10] = test system: human hepatocytes; assay: cell viability (MTS) after CYP induction treatment of human hepatocytes; conditions: after CYP1A2 induction treatment
Procedure: Cell Viability Assay: After the CYP induction treatment and enzyme activity assay, the cells were used for a cell viability assay. The viability of cells, expressed as the percentage of MTS absorbance relative to vehicle control, was measured as described above.

[11] = +NADPH −Inhibitor, Maximum Metabolism
[12] = −NADPH −Inhibitor, Negative Control

Sequence of CYP2C9 (P11712 whole entry): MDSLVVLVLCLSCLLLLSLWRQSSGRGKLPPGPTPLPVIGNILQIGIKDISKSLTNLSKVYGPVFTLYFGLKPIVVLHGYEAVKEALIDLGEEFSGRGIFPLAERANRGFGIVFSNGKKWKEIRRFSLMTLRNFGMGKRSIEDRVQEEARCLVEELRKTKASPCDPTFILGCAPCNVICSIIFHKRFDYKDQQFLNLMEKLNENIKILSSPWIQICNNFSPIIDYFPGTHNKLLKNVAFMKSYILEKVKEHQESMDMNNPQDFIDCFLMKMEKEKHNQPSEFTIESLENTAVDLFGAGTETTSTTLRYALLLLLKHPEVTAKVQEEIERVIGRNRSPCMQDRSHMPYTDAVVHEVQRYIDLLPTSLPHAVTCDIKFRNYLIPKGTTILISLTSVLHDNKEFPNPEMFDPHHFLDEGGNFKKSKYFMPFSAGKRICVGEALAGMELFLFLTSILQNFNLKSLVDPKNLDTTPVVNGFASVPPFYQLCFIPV
Sequence of CYP2D6 (P10635 whole entry): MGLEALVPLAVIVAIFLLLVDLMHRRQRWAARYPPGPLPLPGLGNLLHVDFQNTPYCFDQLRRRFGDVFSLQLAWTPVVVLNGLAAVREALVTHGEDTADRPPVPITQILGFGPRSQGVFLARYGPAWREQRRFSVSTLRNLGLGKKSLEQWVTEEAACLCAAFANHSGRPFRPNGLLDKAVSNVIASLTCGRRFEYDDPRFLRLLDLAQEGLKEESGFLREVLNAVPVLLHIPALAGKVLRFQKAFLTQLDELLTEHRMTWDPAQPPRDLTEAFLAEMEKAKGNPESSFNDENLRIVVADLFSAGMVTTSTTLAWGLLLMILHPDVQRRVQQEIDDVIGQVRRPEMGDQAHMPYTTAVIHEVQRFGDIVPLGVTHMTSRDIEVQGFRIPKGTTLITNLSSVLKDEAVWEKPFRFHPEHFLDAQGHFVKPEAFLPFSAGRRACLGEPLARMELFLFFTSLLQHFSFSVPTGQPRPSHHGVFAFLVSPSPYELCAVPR

## C[n+]1ccc(-c2ccccc2)cc1 [MPP, MPP+]
[1]
  Substrate Assessment: Positive (Influx Rate Ratio≥2.0: Positive)
[1]; OCT2 cells
  Influx Rate AVG: 403 pmol/minute/mg/protein
[1]; OCT2 vs Vector Control
  Influx Rate Ratio: 16.6
[1]; Vector Control cells
  Influx Rate AVG: 24.3 pmol/minute/mg/protein

## CC[C@@]1(c2ccccc2)NC(=O)N(C)C1=O [S-Mephenytoin]
[2]; [11]
  Formation Rate (4′-OH Mephenytoin): 39.8 pmol/min/mg protein
  Measured Metabolite (4′-OH Mephenytoin): 0.398 µM
[2]; [12]
  Formation Rate (4′-OH Mephenytoin): 0 pmol/min/mg protein
  Measured Metabolite (4′-OH Mephenytoin): 0 µM

## CC(C)(O)c1ccccc1CC[C@@H](SCC1(CC(=O)O)CC1)c1cccc(/C=C/c2ccc3ccc(Cl)cc3n2)c1 [Montelukast, montelukast]
[3]
  activity at 20 min, 0.123 µM: 54%
  activity at 20 min, 0.37 µM: 26.8%
  activity at 20 min, 3.33 µM: 4.22%
  activity at 20 min, 10 µM: 2.17%

## Nc1ccc(S(=O)(=O)Nc2ccnn2-c2ccccc2)cc1 [Sulfaphenazole, sulfaphenazole]
[4]; 0.123 μM
  activity at 20 min, 0.123 µM: 76.9%
[4]; 0.370 μM
  activity at 20 min, 0.37 µM: 55.4%
[4]; 3.33 μM
  activity at 20 min, 3.33 µM: 16.3%
[4]; 10.0 μM
  activity at 20 min, 10 µM: 7.69%

## COc1cc(C(=O)O)ccc1NC(=O)[C@@H]1N[C@@H](CC(C)(C)C)[C@](C#N)(c2ccc(Cl)cc2F)[C@H]1c1cccc(Cl)c1F [RG7388]
[5]
  DO1/Actin: 0.065
  DO1 band density: 1300
[5]; normalized to NUGC3
  normalized DO1/Actin: 0.524
[6]
  DO1/Actin: 0.008
  DO1 band density: 94.5
[6]; normalized to NUGC3
  normalized DO1/Actin: 0.068

## CO[C@H]1/C=C/O[C@@]2(C)Oc3c(C)c([O-])c4c(O)c(cc(O)c4c3C2=O)NC(=O)/C(C)=C\C=C\[C@H](C)[C@H](O)[C@@H](C)[C@@H](O)[C@@H](C)[C@H](OC(C)=O)[C@@H]1C.[Na+] [Rifamycin SV]
[7]
  Inhibition Potential Classification: Positive (Percent inhibition≥50%: Positive)
[7]; probe Atorvastatin ([…])
  Percent Inhibition: 94.8
[7]; probe Atorvastatin ([…]), OATP1B1-transfected HEK cells
  Influx Rate AVG: 1.12 pmol/minute/mg protein
[7]; probe Atorvastatin ([…]), Vector Control cells
  Influx Rate AVG: 0.769 pmol/minute/mg protein
[8]
  Inhibition Potential Classification: Positive (Percent inhibition≥50%: Positive)
[8]; probe atorvastatin (0.1 μM per TABLE 176)
  Percent Inhibition: 94.8
[8]; probe atorvastatin (0.1 μM per TABLE 176), OATP1B3-transfected HEK cells
  Influx Rate AVG: 0.991 pmol/minute/mg protein
[8]; probe atorvastatin (0.1 μM per TABLE 176), Vector Control cells
  Influx Rate AVG: 0.769 pmol/minute/mg protein

## C=C[C@H]1C[N@@]2CC[C@H]1C[C@@H]2[C@@H](O)c1ccnc2ccc(OC)cc12 [Quinidine, quinidine]
[9]; 0.123 μM
  activity at 20 min, 0.123 µM: 30.6%
[9]; 0.370 μM
  activity at 20 min, 0.37 µM: 17.7%
[9]; 3.33 μM
  activity at 20 min, 3.33 µM: 8.69%
[9]; 10.0 μM
  activity at 20 min, 10 µM: 7.28%

## COc1ccc2[nH]c([S+]([O-])Cc3ncc(C)c(OC)c3C)nc2c1 (stereo not shown) [OME]
[10]; Donor 1, 50 μM
  Formazan Absorbance (n = 3) Mean: 0.494
[10]; Donor 2, 50 μM
  Formazan Absorbance (n = 3) Mean: 0.800
[10]; Donor 3, 50 μM
  Formazan Absorbance (n = 3) Mean: 0.433
